Usually Ki stands for the equilibrium dissociation constant of an inhibitor or competing ligand from its target.

Read-outs that look alike come from different tables or passages of the source.

For 14 molecules, Ki and tolerable daily intake results are on record in article PMC6429297, “Novel 8-Substituted Coumarins That Selectively Inhibit Human Carbonic Anhydrase IX and XII” (International Journal of Molecular Sciences, 2019).

One series addresses hCA I (Homo sapiens, UniProt P00915). As to the kind of experiment: stopped-flow CO2 hydrase assay, hCA I.
In another series the target is hCA XII (Homo sapiens, UniProt O43570). Nature of the series: stopped-flow CO2 hydrase assay, hCA XII.
The next series addresses hCA II (Homo sapiens, UniProt P00918). Nature of the series: stopped-flow CO2 hydrase assay, hCA II.
Another series concerns the target hCA IX (Homo sapiens, UniProt Q16790). Nature of the series: stopped-flow CO2 hydrase assay, hCA IX. The settings on record: recombinant hCA IX, 6 h preincubation, mean from three assays, errors ±5–10%.
Details of series [1]: method as in PMID 20024932. The settings on record: hepatotoxic effect of coumarin; cited from earlier work.

Chain of hCA I (P00915 whole entry): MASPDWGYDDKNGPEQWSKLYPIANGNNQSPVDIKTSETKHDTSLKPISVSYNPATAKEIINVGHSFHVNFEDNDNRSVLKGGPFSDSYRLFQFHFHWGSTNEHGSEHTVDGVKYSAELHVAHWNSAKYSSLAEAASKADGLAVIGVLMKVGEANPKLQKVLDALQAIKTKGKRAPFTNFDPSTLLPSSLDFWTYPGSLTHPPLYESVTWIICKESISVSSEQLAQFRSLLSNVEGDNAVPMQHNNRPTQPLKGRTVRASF
Chain of hCA XII (O43570 25-354): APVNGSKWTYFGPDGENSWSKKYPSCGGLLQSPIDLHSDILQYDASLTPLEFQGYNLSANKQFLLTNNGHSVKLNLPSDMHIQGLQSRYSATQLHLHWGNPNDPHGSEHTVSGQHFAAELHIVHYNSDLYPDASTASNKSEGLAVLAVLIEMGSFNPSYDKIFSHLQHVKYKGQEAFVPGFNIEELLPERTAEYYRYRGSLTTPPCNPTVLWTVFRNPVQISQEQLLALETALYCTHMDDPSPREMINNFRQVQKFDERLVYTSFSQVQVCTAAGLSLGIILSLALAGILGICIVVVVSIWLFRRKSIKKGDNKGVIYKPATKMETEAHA
Description for hCA II: (§1) An Applied Photophysics stopped-flow instrument has been used for assaying the CA catalyzed CO2 hydration activity [24]. […] The uncatalyzed rates were determined in the same manner and subtracted from the total observed rates. Stock solutions of inhibitor (0.1 mM) were prepared in distilled-deionized water and dilutions up to 0.005 nM were done thereafter with the assay buffer. Inhibitor and enzyme solutions were preincubated together for 6 hours at room temperature prior to assay, in order to allow for the formation of the E-I complex. The inhibition constants were obtained by nonlinear least-squares methods using PRISM 3 (GraphPad Software, San Diego, CA, USA) and the Cheng–Prusoff equation, as reported by Maresca et al. [14], and represent the mean from at least three different determinations. All CA isoforms were recombinant ones obtained in-house.
Description for hCA IX: as §1
Description for hCA XII: as §1

With `Cc1cc(=O)oc2c(CN3CCN(CCO)CC3)c(O)ccc12` [Compound 5, 7-Hydroxy-8-[4-(2-hydroxyethyl)piperazin-1-ylmethyl]-4-methylchromen-2-one], the Ki on hCA I is over 10000 nM; at hCA XII it was 7.1 nM; on hCA II, over 10000 nM; at hCA IX (Ki (nM) hCA IX), 295 nM.

Regarding `Cc1cc(=O)oc2c(CN3CCN(Cc4ccc5c(c4)OCO5)CC3)c(O)ccc12` [Compound 13, 8-(4-Benzo[1,3]dioxol-5-ylmethyl-piperazin-1-ylmethyl)-7-hydroxy-4-methyl-chromen-2-one], the Ki on hCA I was over 10000 nM; at hCA XII, 8.5 nM; at hCA II it was over 10000 nM; on hCA IX (Ki (nM) hCA IX) it was 76.8 nM.

`C=CCN1CCN(Cc2c(O)ccc3c(C)cc(=O)oc23)CC1` [Compound 6, 8-(4-Allylpiperazin-1-ylmethyl)-7-hydroxy-4-methylchromen-2-one]: the inhibition constant (Ki) at hCA I is over 10000 nM; on hCA XII, 5.6 nM; on hCA II it was over 10000 nM; on hCA IX (read-out: Ki (nM) hCA IX) it was 27.1 nM.

As for `Cc1cc(=O)oc2c(CN3CCN(c4ccccc4)CC3)c(O)ccc12` [Compound 7, 7-Hydroxy-4-methyl-8-(4-phenylpiperazin-1-ylmethyl)chromen-2-one], the Ki on hCA I is over 10000 nM; on hCA XII, 7.7 nM; on hCA II, over 10000 nM; on hCA IX (Ki (nM) hCA IX) it was 115 nM.

As to `Cc1ccc(N2CCN(Cc3c(O)ccc4c(C)cc(=O)oc34)CC2)cc1` [Compound 11, 7-Hydroxy-4-methyl-8-(4-p-tolyl-piperazin-1-ylmethyl)chromen-2-one], the Ki was over 10000 nM on hCA I, 9.6 nM on hCA XII, over 10000 nM at hCA II and 308 nM on hCA IX (Ki (nM) hCA IX).

For `Cc1cc(=O)oc2c(CN3CCN(c4ccc(Br)cc4)CC3)c(O)ccc12` [Compound 10, 7-Hydroxy-8-[4-(bromophenyl)-piperazin-1-ylmethyl]-4-methylchromen-2-one], the Ki at hCA I is over 10000 nM; at hCA XII, 9.4 nM; at hCA II, over 10000 nM; on hCA IX (Ki (nM) hCA IX), 162 nM.

As for `Cc1cc(=O)oc2c(CN3CCN(c4ccccc4F)CC3)c(O)ccc12` [Compound 12, 8-[4-(2-Fluorophenyl)piperazin-1-ylmethyl]-7-hydroxy-4-methylchromen-2-one], the Ki at hCA I was over 10000 nM; at hCA XII it was 26.4 nM; at hCA II, over 10000 nM; on hCA IX (Ki (nM) hCA IX), 121 nM.

Consider `Cc1cc(=O)oc2c(CN3CCN(c4ccc(F)cc4)CC3)c(O)ccc12` [Compound 9, 8-[(4-(4-Fluorophenyl)piperazin-1-yl)methyl]-7-hydroxy-4-methylchromen-2-one], for which the Ki at hCA I was over 10000 nM; at hCA XII it was 8.1 nM; on hCA II, over 10000 nM; at hCA IX (Ki (nM) hCA IX), 92.8 nM.

With `Cc1cc(=O)oc2c(CN3CCN(c4ccc(Cl)cc4)CC3)c(O)ccc12` [Compound 8, 8-[4-(4-Chlorophenyl)piperazin-1-ylmethyl]-7-hydroxy-4-methylchromen-2-one], the Ki on hCA I was over 10000 nM; at hCA XII, 8.9 nM; on hCA II, over 10000 nM; on hCA IX (Ki (nM) hCA IX), 190 nM.

For the molecule `O=c1ccc2ccccc2o1` [coumarin], the tolerable daily intake in series [1] is on record as 0.1 mg/kg body weight.

As to `CCN1CCN(Cc2c(O)ccc3c(C)cc(=O)oc23)CC1` [Compound 4, 8-(4-Ethylpiperazin-1-ylmethyl)-7-hydroxy-4-methylchromen-2-one], the Ki on hCA I is over 10000 nM; at hCA XII it was 6.4 nM; on hCA II, over 10000 nM; on hCA IX (Ki (nM) hCA IX) it was 32 nM.

In the case of `Cc1cc(=O)oc2c(CN3CCN(Cc4c(O)ccc5c(C)cc(=O)oc45)CC3)c(O)ccc12` [Compound 2, 1,4-bis[(7-Hydroxy-4-methylcoumarin-8-yl)methyl] piperazine], the inhibitory constant (Ki) was over 10000 nM on hCA I, 8.5 nM at hCA XII, over 10000 nM on hCA II and 67.5 nM on hCA IX (Ki (nM) hCA IX).

In the case of `Cc1cc(=O)oc2c(CN3CCN(C)CC3)c(O)ccc12` [Compound 3, 7-Hydroxy-4-methyl-8-(4-methylpiperazin-1-ylmethyl)chromen-2-one], the Ki is over 10000 nM at hCA I, 9.6 nM on hCA XII, over 10000 nM at hCA II and 88.7 nM on hCA IX (Ki (nM) hCA IX).

For the molecule `Cc1cc(=O)oc2cc(O)ccc12` [Compound 1, 7-Hydroxy-4-methylchromen-2-one], the Ki on hCA I was over 10000 nM; on hCA XII it was 5.8 nM; at hCA II it was over 10000 nM; at hCA IX (Ki (nM) hCA IX), 32.1 nM.
